What was measured:
thrombin [1] = target: T1, thrombin (Homo sapiens, UniProt P00734); test: Thrombin-inhibitory activity in plasma samples (ecarin-activated); type: biochemical; details: citrate plasma, ecarin activation, fluorogenic thrombin substrate; read at about 70% of maximum signal (about 12 min); in some cases means
Procedure: To determine the inhibition of thrombin in plasma samples, plasma prothrombinase is activated by ecarin. Thrombin activity and/or its inhibition by potential inhibitors is/are then measured fluorescently by addition of a substrate.
The substances to be tested are dissolved in various concentrations in dimethyl sulphoxide and diluted with water. In white 96-well flat-bottomed plates, 20 μl of substance dilution are mixed with 20 μl of ecarin solution (ecarin reagent, from Sigma E-0504, final concentration 20 mU per reaction) in Ca buffer (200 mM Hepes+560 mM sodium chloride+10 mM calcium chloride+0.4% PEG) or with 20 μl of Ca buffer (as unstimulated control). Furthermore, 20 μl of fluorogenic thrombin substrate (from Bachem 1-1120, final concentration 50 μmol/l) and 20 μl of citrate plasma (from Octapharma) are added, and the mixture is homogenized well. The plate is measured in a SpectraFluorplus Reader using a 360 nm excitation filter and a 465 nm emission filter every minute over 20 minutes. […] Representative activity data from this test are given in Table 2 below (in some cases as means of individual determinations): […]

thrombin [2] = target: T1, thrombin; test: Measurement of the thrombin inhibition in buffer; type: biochemical; details: human thrombin 0.06 nmol/l in Tris buffer pH 7.4, 22° C., substrate Boc-Asp(OBzl)-Pro-Arg-AMC; in some cases means of individual determinations
Procedure: To determine the thrombin inhibition of the substances listed above, a biochemical test system is constructed in which the conversion of a thrombin substrate is used for determining the enzymatic activity of human thrombin. Here, thrombin cleaves aminomethylcoumarin, which is measured fluorescently, from the peptic substrate. The determinations are carried out in microtitre plates.
Substances to be tested are dissolved in various concentrations in dimethyl sulphoxide and incubated for 15 min with human thrombin (0.06 nmol/l dissolved in 50 mmol/l of Tris buffer [C,C,C-tris(hydroxymethyl)aminomethane], 100 mmol/l of sodium chloride, 0.1% BSA [bovine serum albumin], pH 7.4) at 22° C. The substrate (5 μmol/l Boc-Asp(OBzl)-Pro-Arg-AMC from Bachem) is then added. After 30 min of incubation, the sample is excited at a wavelength of 360 nm and the emission is measured at 460 nm. The measured emissions of the test mixtures with test substance are compared to the control mixtures without test substance (only dimethyl sulphoxide instead of test substance in dimethyl sulphoxide) and IC50 values are calculated from the concentration/activity relationships. Representative activity data from this test are given in Table 1 below (in some cases as means of individual determinations): […]

COc1cc(C(=O)N2CC(C)(C)OCC2(C)CO)cn2nc(NCc3cccc(Cl)c3)nc12 (single isomer, unassigned) [Example 9, {2-[(3-Chlorobenzyl)amino]-8-methoxy[1,2,4]triazolo[1,5-a]pyridin-6-yl}[5-(hydroxymethyl)-2,2,5-trimethylmorpholin-4-yl]methanone]
IC50 (thrombin [1]): 79 nM | IC50 (thrombin [2]): 55 nM

COc1cc(C(=O)N2CC(C)(C)OCC2(C)CO)cn2nc(NCc3cccc(Cl)c3)nc12 (single isomer, unassigned) [Example 10, {2-[(3-Chlorobenzyl)amino]-8-methoxy[1,2,4]triazolo[1,5-a]pyridin-6-yl}[5-(hydroxymethyl)-2,2,5-trimethylmorpholin-4-yl]methanone]
IC50 (thrombin [1]): 41 nM | IC50 (thrombin [2]): 39 nM

COc1cc(C(=O)N2CC(C)(C)OCC2CF)cn2nc(NCc3cccc(Cl)c3)nc12 (single isomer, unassigned) [Example 14, {2-[(3-Chlorobenzyl)amino]-8-methoxy[1,2,4]triazolo[1,5-a]pyridin-6-yl}[5-(fluoromethyl)-2,2-dimethylmorpholin-4-yl]methanone]
IC50 (thrombin [1]): 57 nM | IC50 (thrombin [2]): 24 nM

COc1cc(C(=O)N2CC(C)OCC2CCO)cn2nc(NCc3cccc(Cl)c3)nc12 (single isomer, unassigned) [Example 16, {2-[(3-Chlorobenzyl)amino]-8-methoxy[1,2,4]triazolo[1,5-a]pyridin-6-yl}[5-(2-hydroxyethyl)-2-methylmorpholin-4-yl]methanone]
IC50 (thrombin [1]): 77 nM | IC50 (thrombin [2]): 52 nM

COc1cc(C(=O)N2CC(C)OCC2CCO)cn2nc(NCc3cccc(Cl)c3)nc12 (single isomer, unassigned) [Example 17, {2-[(3-Chlorobenzyl)amino]-8-methoxy[1,2,4]triazolo[1,5-a]pyridin-6-yl}[5-(2-hydroxyethyl)-2-methylmorpholin-4-yl]methanone]
IC50 (thrombin [1]): 119 nM | IC50 (thrombin [2]): 95 nM

COc1cc(C(=O)N2CC(C)OCC2CCO)cn2nc(NC(CF)c3cccc(Cl)c3)nc12 (single isomer, unassigned) [Example 18, (2-{[1-(3-Chlorophenyl)-2-fluoroethyl]amino}-8-methoxy[1,2,4]triazolo[1,5-a]pyridin-6-yl) [5-(2-hydroxyethyl)-2-methylmorpholin-4-yl]methanone]
IC50 (thrombin [1]): 15 nM | IC50 (thrombin [2]): 27 nM

COc1cc(C(=O)N2CC(C)OCC2CCO)cn2nc(NC(CF)c3cccc(Cl)c3)nc12 (single isomer, unassigned) [Example 19, (2-{[1-(3-Chlorophenyl)-2-fluoroethyl]amino}-8-methoxy[1,2,4]triazolo[1,5-a]pyridin-6-yl) [5-(2-hydroxyethyl)-2-methylmorpholin-4-yl]methanone]
IC50 (thrombin [1]): 10 nM | IC50 (thrombin [2]): 11 nM

COc1cc(C(=O)N2CC(C)OCC23CC(O)C3)cn2nc(NCc3cccc(Cl)c3)nc12 (single isomer, unassigned) [Example 20, {2-[(3-Chlorobenzyl)amino]-8-methoxy[1,2,4]triazolo[1,5-a]pyridin-6-yl}[(cis)-2-hydroxy-7-methyl-8-oxa-5-azaspiro[3.5]non-5-yl]methanone]
IC50 (thrombin [1]): 70 nM | IC50 (thrombin [2]): 35 nM

COc1cc(C(=O)N2CC(C)OCC23CC(O)C3)cn2nc(NCc3cccc(Cl)c3)nc12 (single isomer, unassigned) [Example 21, {2-[(3-Chlorobenzyl)amino]-8-methoxy[1,2,4]triazolo[1,5-a]pyridin-6-yl}[(trans)-2-hydroxy-7-methyl-8-oxa-5-azaspiro[3.5]non-5-yl]methanone]
IC50 (thrombin [1]): 67 nM | IC50 (thrombin [2]): 43 nM

COc1cc(C(=O)N2CC(C)OCC23CC(O)C3)cn2nc(NC(CF)c3cccc(Cl)c3)nc12 (single isomer, unassigned) [Example 22, (2-{[1-(3-Chlorophenyl)-2-fluoroethyl]amino}-8-methoxy[1,2,4]triazolo[1,5-a]pyridin-6-yl)[(cis)-2-hydroxy-7-methyl-8-oxa-5-azaspiro[3.5]non-5-yl]methanone]
IC50 (thrombin [1]): 86 nM | IC50 (thrombin [2]): 26 nM

COc1cc(C(=O)N2CC(C)OCC23CC(O)C3)cn2nc(NC(CF)c3cccc(Cl)c3)nc12 (single isomer, unassigned) [Example 23, (2-{[1-(3-Chlorophenyl)-2-fluoroethyl]amino}-8-methoxy[1,2,4]triazolo[1,5-a]pyridin-6-yl)[(cis)-2-hydroxy-7-methyl-8-oxa-5-azaspiro[3.5]non-5-yl]methanone]
IC50 (thrombin [1]): 34 nM | IC50 (thrombin [2]): 29 nM

COc1cc(C(=O)N2CC(C)OCC23CC(O)C3)cn2nc(NC(CF)c3cccc(Cl)c3)nc12 (single isomer, unassigned) [Example 24, (2-{[1-(3-Chlorophenyl)-2-fluoroethyl]amino}-8-methoxy[1,2,4]triazolo[1,5-a]pyridin-6-yl) [(trans)-2-hydroxy-7-methyl-8-oxa-5-azaspiro[3.5]non-5-yl]methanone]
IC50 (thrombin [1]): 19 nM | IC50 (thrombin [2]): 9.9 nM

COc1cc(C(=O)N2CC(C)OCC23CC(O)C3)cn2nc(NC(CF)c3cccc(Cl)c3)nc12 (single isomer, unassigned) [Example 25, (2-{[1-(3-Chlorophenyl)-2-fluoroethyl]amino}-8-methoxy[1,2,4]triazolo[1,5-a]pyridin-6-yl) [(trans)-2-hydroxy-7-methyl-8-oxa-5-azaspiro[3.5]non-5-yl]methanone]
IC50 (thrombin [1]): 55 nM | IC50 (thrombin [2]): 28 nM

COc1cc(C(=O)N2CC(C)OCC2(C)C)cn2nc(NCc3cccc(Cl)c3)nc12 (single isomer, unassigned) [Example 27]
IC50 (thrombin [1]): 56 nM | IC50 (thrombin [2]): 62 nM

COc1cc(C(=O)N2CC(C)OCC2(C)CO)cn2nc(NCc3cccc(Cl)c3)nc12 (single isomer, unassigned) [Example 29, {2-[(3-Chlorobenzyl)amino]-8-methoxy[1,2,4]triazolo[1,5-a]pyridin-6-yl}[5-(hydroxymethyl)-2,5-dimethylmorpholin-4-yl]methanone]
IC50 (thrombin [1]): 67 nM | IC50 (thrombin [2]): 54 nM

COc1cc(C(=O)N2CC(C)OCC2(C)CO)cn2nc(NCc3cccc(Cl)c3)nc12 (single isomer, unassigned) [Example 30, {2-[(3-Chlorobenzyl)amino]-8-methoxy[1,2,4]triazolo[1,5-a]pyridin-6-yl}[5-(hydroxymethyl)-2,5-dimethylmorpholin-4-yl]methanone]
IC50 (thrombin [1]): 51 nM | IC50 (thrombin [2]): 45 nM

COc1cc(C(=O)N2CC(C)(CCO)OCC2(C)C)cn2nc(NCc3cccc(Cl)c3)nc12 (single isomer, unassigned) [Example 33, {2-[(3-Chlorobenzyl)amino]-8-methoxy[1,2,4]triazolo[1,5-a]pyridin-6-yl}[2-(2-hydroxyethyl)-2,5,5-trimethylmorpholin-4-yl]methanone]
IC50 (thrombin [1]): 11 nM | IC50 (thrombin [2]): 4.5 nM

COc1cc(C(=O)N2CC(C)(CC(C)O)OCC2(C)C)cn2nc(NCc3cccc(Cl)c3)nc12 (single isomer, unassigned) [Example 34, {2-[(3-Chlorobenzyl)amino]-8-methoxy[1,2,4]triazolo[1,5-a]pyridin-6-yl}[2-(2-hydroxypropyl)-2,5,5-trimethylmorpholin-4-yl]methanone]
IC50 (thrombin [1]): 19 nM | IC50 (thrombin [2]): 3.9 nM

COc1cc(C(=O)N2CC(C)(CC(C)O)OCC2(C)C)cn2nc(NCc3cccc(Cl)c3)nc12 (single isomer, unassigned) [Example 35, {2-[(3-Chlorobenzyl)amino]-8-methoxy[1,2,4]triazolo[1,5-a]pyridin-6-yl}[2-(2-hydroxypropyl)-2,5,5-trimethylmorpholin-4-yl]methanone]
IC50 (thrombin [1]): 8.7 nM | IC50 (thrombin [2]): 2.4 nM

COc1cc(C(=O)N2CC(C)(CC(C)O)OCC2(C)C)cn2nc(NCc3cccc(Cl)c3)nc12 (single isomer, unassigned) [Example 36, {2-[(3-Chlorobenzyl)amino]-8-methoxy[1,2,4]triazolo[1,5-a]pyridin-6-yl}[2-(2-hydroxypropyl)-2,5,5-trimethylmorpholin-4-yl]methanone]
IC50 (thrombin [1]): 325 nM | IC50 (thrombin [2]): 54 nM

COc1cc(C(=O)N2CC(C)(CC(C)O)OCC2(C)C)cn2nc(NCc3cccc(Cl)c3)nc12 (single isomer, unassigned) [Example 37, {2-[(3-Chlorobenzyl)amino]-8-methoxy[1,2,4]triazolo[1,5-a]pyridin-6-yl}[2-(2-hydroxypropyl)-2,5,5-trimethylmorpholin-4-yl]methanone]
IC50 (thrombin [1]): 112 nM | IC50 (thrombin [2]): 67 nM

From patent US20160108039A1, “TRIAZOLOPYRIDINES AS THROMBIN INHIBITORS FOR THE TREATMENT OF THROMBOEMBOLIC DISEASES” (BAYER PHARMA AKTIENGESELLSCHAFT, priority 2013, published 2016)
